Assay results published in BindingDB's records for doi:10.1021/jm030505a (Abbott Laboratories, 2004).

Columns and labels:
[1] = In vitro effective concentration tested on HEK293 cells co-transfected with ferret Dopamine receptor D4 using FLIPR assay
[2] = In vitro effective concentration tested on HEK293 cells co-transfected with ferret Dopamine receptor D2 using FLIPR assay

EC50 [1] | EC50 [2] | SMILES
2.7 nM |  | NCCc1ccc(O)c(O)c1
23.2 nM |  | c1ccc(N2CCN(Cc3nc4ccccc4[nH]3)CC2)nc1 [2-((4-(pyridin-2-yl)piperazin-1-yl)methyl)-1H-benzo[d]imidazole]
22 nM | 527 nM | Fc1ccc2[nH]c(CN3CCN(c4ccccn4)CC3)cc2c1 [5-Fluoro-2-(4-pyridin-2-yl-piperazin-1-ylmethyl)-1H-indole]
1.5 nM |  | CN1CCc2cccc3c2[C@H]1Cc1ccc(O)c(O)c1-3 [APOKYN]
